The numbers were not newly measured in patent US7872030B2, “Use of 2-[5-(4-fluorophenyl)-3-pyridylmethylaminomethyl]-chromane and its physiologically acceptable salts” (Merck Patent GmbH, priority 2001, dated 2011), which cites them from elsewhere.

For this data set, the system named is advanced Parkinson patients. The settings on record: cited from earlier work.

Consider `O=C1CC2(CCCC2)CC(=O)N1CCCCN1CCN(c2ncccn2)CC1` [buspirone], for which the anti-dyskinetic properties result was “moderate anti-dyskinetic properties”.
